Assay results taken from US11998556B2, “Methods of treating parkinson's disease and/or lewy body disease or disorder(s)” (Athira Pharma, Inc., priority 2021, dated 2024).
Square brackets hold non-standard residues; d marks the D form. Peptide text beside a SMILES is read from it. * marks the point of attachment. pY = N[CH](Cc1ccc(OP(=O)(O)O)cc1)C(=O)O; Hexanoyl = CCCCCC(=O)*; Ahx = NCCCCCC(=O)O

How the values were obtained:
[1] = Clinical studies of ATH-1017: safety and tolerability of single and multiple SC administration; type: in vivo, human
[2] = Conversion of prodrug ATH-1017 to active drug ATH-1001 in the plasma after SC injection; type: in vivo
From the text: ATH-1017 is an experimental treatment for Lewy body disease or disorder(s) (LBD), including Parkinson's disease dementia (PDD) and/or dementia with Lewy bodies (DLB), formulated as a sterile solution for subcutaneous (SC) injection. […] ATH-1017 was developed as a water-soluble prodrug of ATH-1001 to allow SC dosing in aqueous vehicles. The active drug ATH-1001 acts as an agonist of the hepatocyte growth factor (HGF) receptor and its tyrosine kinase, MET in the brain. The HGF/MET system presents a new therapeutic target to treat neurodegeneration and restore cognitive, behavioral, functional and motor capacities in LBD such as PDD.

[3] = Phase 2 randomized, double-blind, placebo-controlled study in subjects with PDD inclusive of probable DLB; type: in vivo, human; conditions: 40 mg/day or 70 mg/day SC OD, 26 weeks
Procedure: The study is conducted at a total of approximately 15 centers in the USA and optionally Canada. Subjects and their caregivers are required to sign an informed consent form (ICF) and are evaluated against the inclusion/exclusion criteria during a screening period; all eligible subjects will have the option to be tested for glucocerebrosidase (GBA) genotype. Subjects who meet all inclusion/exclusion criteria will undergo baseline ERP P300 assessments at 2 separate baseline visits. At the first baseline assessment (Visit 2a, Pre-baseline, Day-10 to Day-3), ERP P300 is uploaded for quality check immediately after completion of the visit. […] At this Baseline visit (Visit 2b), subjects undergo pre-dose baseline and post-dose ERP P300. […] The first SC injection of study drug is performed on site under supervision. The subject should withhold study drug administration on the day of subsequent clinic visits; study drug administration is done on site under supervision of site staff at these visits. […] During the double-blind treatment period, clinic visits take place on Day 1 and thereafter at Weeks 2, 6, 12, 16, 20, and 26, with a safety follow-up visit scheduled 4 weeks after completion of the double-blind period at Week 30. On Day 1, after completion of the first dose, subjects remain on-site 2 hours for post-treatment clinical observation. […]

[4] = Nonclinical studies (hepatotoxicity risk); type: in vivo

CCCCCC(=O)NC(Cc1ccc(OP(=O)(O)O)cc1)C(=O)NC(C(=O)NCCCCCC(N)=O)C(C)CC (stereo not shown) [ATH-1017] (Hexanoyl-[pY]-Ile-[Ahx]-NH2; configuration not given here)
safety and tolerability ([1]; 40 mg SC, OD, over 9 consecutive days, AD subjects): safe and well tolerated | injection site reactions (pain, pruritus, erythema): severity ([1]; SC injection, human clinical studies, resolved without specific therapy): mild in nature | hepatotoxicity ([1]; human studies): has not been observed | CNS-specific adverse events ([1]; humans, to date): no CNS-specific adverse events have been observed | safety and tolerability ([1]; multiple administration of 20, 40, 60 and 80 mg SC, OD, over 9 consecutive days, healthy elderly subjects): safe and well tolerated | safety and tolerability ([1]; single SC administration of 2, 6, 20, 40, 60 and 90 mg, healthy young subjects): safe and well tolerated | conversion of prodrug to active drug ATH-1001 [2]: rapidly converted | safety and tolerability [3]: acceptable safety and tolerability | primary, secondary or exploratory endpoints (GST, ADAS-Cog13, ERP P300 latency etc.) ([3]; versus placebo): achieves one or more of the primary, secondary, or exploratory endpoints | hepatotoxicity risk [4]: potential risk for hepatotoxicity identified
